The results in this text go back to patent US7691856B2, “Thiadiazoledioxides and thiadiazoleoxides as CXC- and CC-chemokine receptor ligands” (Schering Corporation, priority 2002, dated 2010).

The target in one experiment is T1, CCR7 (Homo sapiens, UniProt P32248).
T1 sequence (P32248 25-378): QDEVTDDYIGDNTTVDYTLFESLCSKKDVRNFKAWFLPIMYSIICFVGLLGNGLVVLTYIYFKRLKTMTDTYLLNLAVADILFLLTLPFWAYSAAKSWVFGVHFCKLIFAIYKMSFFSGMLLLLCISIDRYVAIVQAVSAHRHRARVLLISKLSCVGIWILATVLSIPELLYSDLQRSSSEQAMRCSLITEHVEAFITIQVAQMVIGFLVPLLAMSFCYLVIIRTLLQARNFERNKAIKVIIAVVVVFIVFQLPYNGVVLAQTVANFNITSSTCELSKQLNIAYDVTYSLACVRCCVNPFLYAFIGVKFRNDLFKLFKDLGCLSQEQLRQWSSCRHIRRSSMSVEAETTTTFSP
Briefly: CCR7 [35S]GTPγS exchange assay (SPA, Ba/F3-CCR7 membranes).

The target of another experiment is T2, hCXCR1 (Homo sapiens, UniProt P25024).
T2 construct: purchased Biosignal / Biosignal Packard; alternatively Euroscreen; host or cells: CHO cells over-expressing hCXCR1 (membranes)
T2 sequence (P25024 1-350): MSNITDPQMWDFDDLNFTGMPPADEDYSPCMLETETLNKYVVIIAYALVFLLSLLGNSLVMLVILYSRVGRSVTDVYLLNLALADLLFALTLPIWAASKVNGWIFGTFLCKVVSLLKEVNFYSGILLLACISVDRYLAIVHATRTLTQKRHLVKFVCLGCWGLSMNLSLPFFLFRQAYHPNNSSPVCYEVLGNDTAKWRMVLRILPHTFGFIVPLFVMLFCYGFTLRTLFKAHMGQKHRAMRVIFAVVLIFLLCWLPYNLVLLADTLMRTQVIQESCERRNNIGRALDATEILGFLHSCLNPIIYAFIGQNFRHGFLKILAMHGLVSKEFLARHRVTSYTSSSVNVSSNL
Nature of the experiment: CXCR1 SPA assay ([125I]-IL-8 binding, hCXCR1-CHO membranes). Particulars: [125I]-IL-8 binding to hCXCR1-CHO membranes. Here is the method: For each well of a 96 well plate, a reaction mixture of 10 μg hCXCR1-CHO overexpressing membranes (Biosignal) and 200 μg/well WGA-SPA beads (Amersham) in 100 μl was prepared in CXCR1 assay buffer (25 mM HEPES, pH 7.8, 2 mM CaCl2, 1 mM MgCl2, 125 mM NaCl, 0.1% BSA) (Sigma). A 0.4 nM stock of ligand, [125I]-IL-8 (NEN) was prepared in the CXCR1 assay buffer. 20× stock solutions of test compounds were prepared in DMSO (Sigma). A 6× stock solution of IL-8 (R&D) was prepared in […] assay buffer. The above solutions were added to a 96-well assay plate (PerkinElmer) as follows: 10 μl test compound or DMSO, 40 μl CXCR1 assay buffer or IL-8 stock, 100 μl of reaction mixture, 50 μl of ligand stock (Final [Ligand]=0.1 nM). The assay plates were shaken for 5 minutes on plate shaker, then incubated for 8 hours before cpm/well were determined in Microbeta Trilux counter (PerkinElmer). % Inhibition of Total binding-NSB (250 nM IL-8) was determined for IC50 values.
Alternative CXCR1 SPA Assay
Protocol using CXCR1-expressing membranes from Biosignal Packard
For each 50 μl reaction, a working stock of 0.25 μg/μl hCXCR1-CHO over-expressing membranes with a specific activity of 0.05 pmol/mg (Biosignal Packard) and 25 μg/μl WGA-SPA beads (Perkin Elmer Life Sciences) was prepared in CXCR1 assay buffer (25 mM HEPES, pH 7.8, 0.1 mM CaCl2, 1 mM MgCl2, 100 mM NaCl) (Sigma). […] The assay plates were incubated for 4 hours before cpm/well were determined in a Microbeta Trilux counter (Perkin Elmer Life Sciences). IC50 values were quantified using nonlinear regression analysis in GraphPad Prism. […]
For each 50 μl reaction, a working stock of 0.025 μg/μl hCXCR1-CHO over-expressing membranes with a specific activity of 3.47 pmol/mg (Euroscreen) and 5 μg/μl WGA-SPA beads (Perkin Elmer Life Sciences) was prepared in CXCR1 assay buffer (25 mM HEPES, pH 7.8, 2.0 mM CaCl2, 1 mM MgCl2, 125 mM NaCl) (Sigma). […] The assay plates were incubated for 4 hours before cpm/well were determined in a Microbeta Trilux counter (Perkin Elmer Life Sciences). […]

Another experiment deals with T3, hCXCR2 (Homo sapiens, UniProt P25025).
T3 construct: purchased Biosignal / Biosignal Packard; host or cells: CHO cells over-expressing hCXCR2 (membranes)
T3 sequence (P25025 1-360): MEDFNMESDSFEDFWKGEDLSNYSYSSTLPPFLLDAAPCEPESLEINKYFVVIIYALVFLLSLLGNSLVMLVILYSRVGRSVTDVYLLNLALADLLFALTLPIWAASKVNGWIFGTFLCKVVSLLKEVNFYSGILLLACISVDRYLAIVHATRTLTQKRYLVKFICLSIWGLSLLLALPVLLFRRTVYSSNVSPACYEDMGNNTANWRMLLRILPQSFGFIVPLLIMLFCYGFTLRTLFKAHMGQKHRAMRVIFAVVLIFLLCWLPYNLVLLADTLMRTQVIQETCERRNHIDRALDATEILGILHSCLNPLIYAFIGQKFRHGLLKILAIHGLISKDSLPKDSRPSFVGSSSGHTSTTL
Nature of the experiment: CXCR2 SPA assay ([125I]-IL-8 binding, hCXCR2-CHO membranes). Conditions: [125I]-IL-8 binding to hCXCR2-CHO membranes. Here is the method: For each well of a 96 well plate, a reaction mixture of 4 μg hCXCR2-CHO overexpressing membranes (Biosignal) and 200 μg/well WGA-SPA beads (Amersham) in 100 μl was prepared in CXCR2 assay buffer (25 mM HEPES, pH 7.4, 2 mM CaCl2, 1 mM MgCl2). A 0.4 nM stock of ligand, [125I]-IL-8 (NEN), was prepared in the CXCR2 assay buffer. 20× stock solutions of test compounds were prepared in DMSO (Sigma). A 6× stock solution of GRO-α (R&D) was prepared in CXCR2 assay buffer. The above solutions were added to a 96-well assay plate (PerkinElmer or Corning) as follows: 10 μl test compound or DMSO, 40 ul CXCR2 assay buffer or GRO-α stock, 100 μl of reaction mixture, 50 μl of ligand stock (Final [Ligand]=0.1 nM). When 40× stock solutions of test compounds in DMSO were prepared, then the above protocol was used except instead 5 μl test compound or DMSO and 45 μl CXCR2 assay buffer were used. […]
For each 50 μl reaction, a working stock of 0.031 μg/μl hCXCR2-CHO over-expressing membranes with a specific activity of 0.4 pmol/mg (Biosignal Packard) and 2.5 μg/μl WGA-SPA beads (Perkin Elmer Life Sciences) was prepared in CXCR2 assay buffer (25 mM HEPES, pH 7.4, 2.0 mM CaCl2, 1 mM MgCl2) (Sigma). […] The assay plates were incubated for 2 hours before cpm/well were determined in a Microbeta Trilux counter (Perkin Elmer Life Sciences). IC50 values were quantified using nonlinear regression analysis in GraphPad Prism. […]
For each 200 μl reaction, a working stock of 0.02 μg/μl hCXCR2-CHO over-expressing membranes with a specific activity of 0.6 pmol/mg (Biosignal Packard) and 2 μg/μl WGA-SPA beads (Perkin Elmer Life Sciences) was prepared in CXCR2 assay buffer (25 mM HEPES, pH 7.4, 2.0 mM CaCl2, 1 mM MgCl2) (Sigma). […] The assay plates were incubated for 2 hours before cpm/well were determined in a Microbeta Trilux counter (Perkin Elmer Life Sciences). IC50 values were quantified using nonlinear regression analysis in GraphPad Prism.

Procedure for CCR7: CCR7 [^35S]GTPγS Exchange Assay.
The exchange of guanosine 5′-[γ-^35S]triphospate ([^35S]GTPγS, triethylammonium salt; specific activity 1250 Ci/mmol; NEN Boston, Mass.) was measured using a scintillation proximity assay (SPA) as previously described (Cox, et. al., Mol. Pharmacol., 59, 2001, 707-15). For each assay point, 2 μg of membrane was preincubated for 30 min at room temperature with 200 μg wheat germ agglutinin-coated SPA beads (WGA-SPA; Amersham, Arlington Heights, Ill.) in SPA binding buffer (50 mM HEPES, 10 mM MgCl2, 1 mM EDTA, 100 mM NaCl, 0.1% BSA, pH 7.6). The beads and membranes were transferred to a 96-well Isoplate (Wallac, Gaithersburg, Md.) and incubated with 10 μM guanosine 5′-diphosphate (GDP) in the presence or absence of 2 nM MIP-30 and/or compounds for 60 min at room temperature. The incubation continued for another 60 min. following the addition of 0.1 nM [^35S]GTPγS. Membrane-bound [^35S]GTPγS was measured using a 1450 Microbeta Trilux counter (Wallac, Gaithersburg, Md.).

For the compound `CCN(CC)S(=O)(=O)c1scc(NC2=NS(=O)(=O)N=C2N[C@@H](c2ccc(C)o2)C(C)(C)C)c1O` [Example 2065], on CCR7, the EC50 was determined as 13 nM.
At CCR7, `Cc1ccc([C@H](NC2=NS(=O)(=O)N=C2Nc2csc(S(=O)(=O)N3CCOCC3)c2O)C(C)(C)C)o1` [Example 2066] came in with a concentration giving a half-maximal response (EC50) of 16 nM. This EC50 and that of the compound before are within 1.5-fold of each other.
Still for that read-out and setting: under `CCC(C)(C)[C@@H](NC1=NS(=O)(=O)N=C1Nc1cccc(C(=O)N(C)C)c1O)c1ccc(C)o1` [Example 2106] stands 12 nM.
As to `CC[C@@H](Nc1n[s+]([O-])nc1Nc1cccc(C(=O)N(C)C)c1O)c1cc(C(C)C)co1` (stereo partly drawn) [Example 201.1], the inhibitory constant (Ki) on hCXCR1 worked out at 123 nM; at hCXCR2 it was 3.5 nM.
For `CC(C)c1coc([C@H](NC2=NS(=O)(=O)N=C2Nc2ccc(Br)c(C(=O)N(C)C)c2O)C(C)(C)C)c1` [Example 56], the Ki stood at 4 nM at hCXCR1 and 7 nM on hCXCR2.
As to `Cc1cc([C@H](Nc2n[s+]([O-])nc2Nc2cccc(C(=O)N(C)C)c2O)C(C)C)oc1C` (stereo partly drawn) [Example 201.9], the Ki at hCXCR1 worked out at 50 nM; at hCXCR2, 2.7 nM.
